{"source": "patent US20110104159A1", "about": "“COMPOSITIONS AND METHODS FOR TREATING, CONTROLLING, REDUCING, AMELIORATING, OR PREVENTING ALLERGY” (priority 2006, published 2011)", "key": {"[1]": {"tested_on": "rabbit paracentesis model", "assay": "Rabbit paracentesis model of ocular inflammation (overall conclusion)", "type": "in vivo", "conditions": "0.1%, 0.5% and 1% topical; preliminary conclusion", "source_text": "Inflammatory processes are multidimensional in origin, and are characterized by complex cellular and molecular events involving numerous components all of which have not been identified. Prostaglandins are among these mediators and play an important role in certain forms of ocular inflammation. Paracentesis of the anterior chamber in the rabbit eye induces inflammatory reaction due to the disruption of the blood-aqueous barrier (“BAB”), which is mediated, at least in part, by prostaglandin E2 [References 1-3 below]. Intraocular or topical administration of PGE2 disrupts the BAB. [Reference 4, below] The treatment schedule adopted in this study was similar to the clinical NSAIDs (Ocufen) treatment schedule used by surgeons for patients before cataract surgery.\nEach rabbit was placed in a restraint device and tagged with the alphanumeric code. The formulations were instilled (50 μl) into the conjunctival sac of both eyes 180, 120, 90 and 30 min before the first paracentesis; then 15, 30, 90 min after the first paracentesis. To perform the first paracentesis the animals were anaesthetized by intravenous injection of 5 mg/kg Zoletil® (Virbac; 2.5 mg/kg tiletamine HCl and 2.5 mg/kg zolazepam HCl) and one drop of local anesthetic (Novesina®, Novartis) was administered to the eye. […]"}, "[2]": {"tested_on": "normotensive rabbits", "conditions": "topical eye drops, normotensive rabbits [27]; cited from earlier work"}, "[3]": {"tested_on": "human eosinophils", "assay": "Cytokine-sustained (GM-CSF or IL-5) eosinophil survival", "type": "cell-based", "conditions": "for IC50: Homo sapiens, Eosinophil, 48 h, 0.1% FBS"}, "[4]": {"tested_on": "protein concentration in the aqueous humor", "assay": "Protein measurement in aqueous humor", "type": "in vivo, Rabbit", "conditions": "for Protein in aqueous humor at the second paracentesis, Mean: group mean; for Protein in aqueous humor at the second paracentesis: individual eye sample, listed as BOL", "description": "(§1) Each rabbit was placed in a restraint device and tagged with the alphanumeric code. The formulations were instilled (50 μl) into the conjunctival sac of both eyes 180, 120, 90 and 30 min before the first paracentesis; then 15, 30, 90 min after the first paracentesis. To perform the first paracentesis the animals were anaesthetized by intravenous injection of 5 mg/kg Zoletil® (Virbac; 2.5 mg/kg tiletamine HCl and 2.5 mg/kg zolazepam HCl) and one drop of local anesthetic (Novesina®, Novartis) was administered to the eye. Anterior chamber paracentesis was performed with a 26 G needle attached to a tuberculin syringe; the needle was introduced into the anterior chamber through the cornea, taking care not to damage the tissues. Two hours after the first paracentesis, the animals were sacrificed with 0.4 ml Tanax® (Intervet International B.V.) and the second paracentesis was performed. About 100 μl of aqueous humor were removed at the second paracentesis. Aqueous humor was immediately split in four aliquots and stored at −80° C. until analysis. Then both eyes were enucleated and the iris-ciliary body was carefully excised, placed in polypropylene tubes, and stored at −80° C. until analysis.\nFor protein concentration determination in the aqueous humor we used the Protein Quantification Kit (Fluka; Cat. No. 77371; Lot. No. 1303129). Five microliters of aqueous humor were diluted to 100 μl with water. Twenty microliters of samples and of standards were load into a 96-well plate and recorded in a plate layout. Samples were treated following the assay procedure described in the kit. A microplate reader (GDV, Italy; model DV 990 B/V6) set at 670 nm was used for making the calibration and analyzing the samples."}, "[5]": {"tested_on": "human HMC-1 cells", "assay": "Ionomycin-induced cytokine/chemokine release in HMC-1 cells (Luminex)", "type": "cell-based", "conditions": "HMC1, 18 h after ionomycin, 95% confidence limits in brackets", "description": "A human mast cell line (HMC-1), a kind gift from Prof.\n(§2) After 18 h stimulation at 37° C. in a 5% CO2 atmosphere, Interleukin-8 (IL-8) was measured in supernatants obtained from […] with a commercial ELISA kit from R&D Systems. The threshold sensitivity was 5 pg/ml and the inter- and intra-assay variations were less than 5%. The supernatants obtained from HMC-1 cells were aliquoted in duplicates for interleukin-6 (IL-6), IL-8, chemokine (C-C motif) ligand 5 (CCL5)/regulated upon activation, normal T-cell expressed and secreted (RANTES) and tumor necrosis factor-α (TNF-α) analysis using a high-throughput multiplex Luminex technology (Luminex 200 System; Luminex, Austin, Tx, USA) and Beadview software version 1.0 (Upstate Cell Signaling Solutions, Temecula, Calif.). Standard curves for known concentrations of recombinant human cytokines were used to convert median fluorescence intensities to cytokine concentrations in pg/ml. Only the linear portions of the standard curves were used to quantify cytokine concentrations, and in instances where the fluorescence reading exceeded the linear range of the standard curve, an appropriate dilution was performed to ensure that the concentration was in the linear portion of the curve.\nThe effect of BOL-303242-X on secretion of the reported cytokines and chemokines, 18 h after ionomycin ([…]) stimulation of HMC-1 cells, was determined in comparison to dexamenthasone. Compounds (1 nM-1000 nM) were added 45 min before ionomycin. Values were calculated by analyzing at least three separated experiments where concentration-response curves were measured. ^a95% Confidence limits."}, "[6]": {"tested_on": "human eosinophils", "assay": "Ionomycin-induced IL-8 secretion in human eosinophils (ELISA)", "type": "cell-based", "conditions": "Eosinophil, compound 45 min before ionomycin, supernatant after 18 h, read-out: IC50, IL-8 release induced by ionomycin in eosinophils", "description": "as §2"}, "[7]": {"tested_on": "leukocytes (PMN)", "assay": "Leukocytes (PMN) measurement in aqueous humor", "type": "in vivo, Rabbit", "conditions": "for PMN in aqueous humor at the second paracentesis, Mean: group mean; for PMN in aqueous humor at the second paracentesis: individual eye sample, listed as BOL", "description": "as §1\nFor the determination of the number of leukocytes we used a haemocytometer (Improved Neubauer Chamber; Brigth-line, Hausser Scientific) and a Polyvar 2 microscope (Reichert-Jung)."}}, "note": "Several values for one entry are separate records, joined by “and”; a condition that tells them apart may be missing. Equal values may be shown once. Read-outs that look alike come from different tables or passages of the source."}
{"compound": "Cc1ccc2c(NC[C@](O)(CC(C)(C)c3cc(F)cc4c3OCC4)C(F)(F)F)cccc2n1", "note": "[BOL-303242-X, (R)-1,1,1-Trifluoro-4-(5-fluoro-2,3-dihydrobenzofuran-7-yl)-4-methyl-2-{[(2-methyl-5-quinolyl)amino]methyl}pentan-2-ol]", "values": [{"measurement": "Activity in the rabbit paracentesis model", "setting": "[1]", "result": "active in this model"}, {"measurement": "Ability to increase intraocular pressure compared to dexamethasone", "setting": "[2]", "result": "reduced ability to increase intraocular pressure"}, {"measurement": "Reversal of cytokine-sustained survival at higher cytokine concentrations", "setting": "[3]; GM-CSF 200 pM or IL-5 100 pM, data not shown", "result": "not, in fact, able to reverse cytokine-sustained survival"}, {"measurement": "IC50", "setting": "[3]; GM-CSF 70 pM, read-out: IC50, inhibition of GM-CSF-induced eosinophil survival", "result": 158, "unit": "nM"}, {"measurement": "IC50", "setting": "[3]; IL-5 30 pM, read-out: IC50, inhibition of interleukin-5-induced eosinophil survival", "result": 399, "unit": "nM"}, {"measurement": "Protein in aqueous humor at the second paracentesis, Mean", "setting": "[4]; 0.1% topical", "result": 33.667, "unit": "mg/mL"}, {"measurement": "Protein in aqueous humor at the second paracentesis", "setting": "[4]; 0.1% topical", "result": "34.87 mg/mL and 34.41 mg/mL and 31.14 mg/mL and 22.82 mg/mL and 29.46 mg/mL and 31.69 mg/mL and 35.70 mg/mL and 49.25 mg/mL"}, {"measurement": "Protein in aqueous humor at the second paracentesis, Mean", "setting": "[4]; 0.5% topical", "result": 28.844, "unit": "mg/mL"}, {"measurement": "Protein in aqueous humor at the second paracentesis", "setting": "[4]; 0.5% topical", "result": "33.98 mg/mL and 33.65 mg/mL and 19.99 mg/mL and 27.11 mg/mL and 19.72 mg/mL and 36.35 mg/mL and 27.71 mg/mL and 32.24 mg/mL"}, {"measurement": "Protein in aqueous humor, statistical comparison with CTR", "setting": "[4]; 0.5% topical, p<0.05", "result": "statistical significance"}, {"measurement": "Protein in aqueous humor at the second paracentesis, Mean", "setting": "[4]; 1% topical", "result": 21.435, "unit": "mg/mL"}, {"measurement": "Protein in aqueous humor at the second paracentesis", "setting": "[4]; 1% topical", "result": "20.99 mg/mL and 21.48 mg/mL and 15.11 mg/mL and 20.28 mg/mL and 20.94 mg/mL and 21.89 mg/mL and 20.03 mg/mL and 30.76 mg/mL"}, {"measurement": "Protein in aqueous humor, statistical comparison with CTR", "setting": "[4]; 1% topical, p<0.001", "result": "statistical significance"}, {"measurement": "IC50", "setting": "[5]; read-out: IC50 (nM), CCL5/RANTES release induced by ionomycin", "result": 88.7, "unit": "nM"}, {"measurement": "IC50", "setting": "[5]; read-out: IC50 (nM), Interleukin-6 release induced by ionomycin", "result": 83.2, "unit": "nM"}, {"measurement": "IC50", "setting": "[5]; read-out: IC50 (nM), Interleukin-8 release induced by ionomycin", "result": 66.5, "unit": "nM"}, {"measurement": "IC50", "setting": "[5]; read-out: IC50 (nM), TNF-α release induced by ionomycin", "result": 43.8, "unit": "nM"}, {"measurement": "IC50", "setting": "[6]", "result": 10.7, "unit": "nM"}, {"measurement": "PMN in aqueous humor at the second paracentesis, Mean", "setting": "[7]; 0.1% topical", "result": 28.333, "unit": "number/μl"}, {"measurement": "PMN in aqueous humor at the second paracentesis", "setting": "[7]; 0.1% topical", "result": "20 number/μl (4×) and 40 number/μl and 50 number/μl"}, {"measurement": "PMN in aqueous humor at the second paracentesis, Mean", "setting": "[7]; 0.5% topical", "result": 21.250, "unit": "number/μl"}, {"measurement": "PMN in aqueous humor at the second paracentesis", "setting": "[7]; 0.5% topical", "result": "40 number/μl (2×) and 20 number/μl (3×) and 10 number/μl (3×)"}, {"measurement": "PMN in aqueous humor at the second paracentesis, Mean", "setting": "[7]; 1% topical", "result": 28.750, "unit": "number/μl"}, {"measurement": "PMN in aqueous humor at the second paracentesis", "setting": "[7]; 1% topical", "result": "30 number/μl (3×) and 20 number/μl (3×) and 40 number/μl (2×)"}]}
